Data published in patent US7390831B2, “Tetracyclic steroid derivatives useful as progesterone receptor modulators” (Janssen Pharmaceutica N.V., priority 2006, dated 2008).
Read-outs that look alike come from different tables or passages of the source.

Assays:
[1] = tested on: A549 Human lung carcinoma cells; experiment: A549 Human Lung Cell Assay (transfected cells, dexamethasone challenge, luciferase read-out); assay type: cell-based; settings: test compound 10 min then dexamethasone challenge, 24 h, Luc-assay, read-out: A 549 IC50
Procedure: A549Human Lung Cell Assay
A549Human lung carcinoma cells were grown in F-12K Nutrient Mixture containing 10% (v/v) fetal bovine serum (FBS; Invitrogen), 2 mM glutamine and 0.15% sodium dicarbonate (Invitrogen).
A549 cells were split 1 to 3 in 175 cm tissue culture flask. The cells were incubated at 37° C. in CO2 incubator until the cells were 95% confluent (typically 24-30 hours).
The following solutions were prepared in sterile tubes: (a) Solution A 1.5 μg/ml of DNA in 8.5 ml OPTI-MEM I Reduced Serum Medium. (GIBCO cat# 31985) and (b) Solution B: 6 μl/ml of DMRIE-C Reagent into […] OPTI-MEM I. The two solutions were combined and mixed gently, then incubated at room temperature for 40 minutes.
The A549 cells prepared above were washed with […] of OPTI-MEM I. The medium was removed and 17 ml of the lipid-DNA complex solution was overlayed onto cells. The cells ere then incubated for 16 h at 37° C. in CO2 incubator. The DNA-containing medium was removed and 30 ml of growth medium was added. (5% Charcoal treated FBS) After 5-6 h, the cells were seeded in a 96 well plate and the cells incubated overnight at 37° C. in CO2 incubator.
To each well was then added 5 μl of test compounds and the cells incubated at 37° C. for 10 min. 5 μL of dexamathasone (CAS [50-02-2]), was then added to each well for challenger and the cells incubated at 37° C. in CO2 incubator for 24 h. 100 μl of Luc-assay buffer was then added into each cell well and the cells incubated for 30 min at room temperature. A 150 μL sample from each well was then transferred into a DYNEX Microlitel plate and read on Top-counter.
(§1) Representative compounds of the present invention were tested according to the procedures described in Examples 45 and 46 above, with results as listed in Table 2 below.

[2] = tested on: T47D human breast cancer cells; experiment: T47D Human Breast Cancer Cells Assay (alkaline phosphatase, luminescence); assay type: cell-based
Procedure: T47D Human Breast Cancer Cells Assay
T47D human breast cancer cells were grown in RPMI medium without phenol red (Invitrogen) containing 10% (v/v) heat-inactivated fetal bovine serum (FBS; Hyclone), 1% (v/v) penicillin-streptomycin (Invitrogen), 1% (w/v) glutamine (Invitrogen), and […] insulin (Sigma). Incubation conditions were 37° C. in a humidified 5% (v/v) carbon dioxide environment.
The cells were plated in 96-well tissue culture plates at 10,000 cells per well in assay medium [RPMI medium without phenol red (Invitrogen) containing 5% (v/v) charcoal-treated FBS (Hyclone) and 1% (v/v) penicillin-streptomycin (Invitrogen)]. Two days later, the medium was decanted and test compound or control were added at a final concentration of 0.1% (v/v) dimethyl sulfoxide in fresh assay medium. Twenty-four hours later, an alkaline phosphatase assay was performed using a SEAP kit (BD Biosciences Clontech, Palo Alto, Calif.). Briefly, the medium was decanted and the cells were fixed for 30 minutes at room temperature with 5% (v/v) formalin (Sigma). The cells were washed once with room temperature Hank's buffered saline solution (Invitrogen). Equal volumes (0.05 mL) of 1× Dilution Buffer, Assay Buffer and 1:20 substrate/enhancer mixture were then added. After 1 hour incubation at room temperature in the dark, the lysate was transferred to a white 96-well plate (Dynex) and luminescence was read using a LuminoSkan Ascent (Thermo Electron, Woburn, Mass.).
as §1

[3] = Homo sapiens, T47D, 24 h, read-out: T47D IC50 (nM), T47D cells, 24 h with test compound, alkaline phosphatase assay (SEAP kit)
[4] = T47D cells, 24 h with test compound, alkaline phosphatase assay (SEAP kit), read-out: T47D IC50

| Molecule | IC50 ([1]; Homo sapiens, A549, A549 cells) [nM] | IC50 [2, 3] [nM] | also measured |
| --- | --- | --- | --- |
| CSc1ccc([C@H]2OC[C@]3(C)C(C#Cc4ccccc4)=CCC3C3CCC4=CC(=O)CCC4=C32)cc1 (stereo partly drawn) [Compound 11, 12a-Methyl-10-(4-methylsulfanyl-phenyl)-1-phenylethynyl 3a,3b,4,5,9,10,12,12a-octahydro-3H,8H-11-oxa-naphtho[2,1-e]azulen-7-one] | > 3000 | > 1000 | – |
| C=CC[C@]1(O)CCC2C3CCC4=CC(=O)CCC4=C3[C@@H](c3ccc(OC)cc3)OC[C@@]21C (stereo partly drawn) [Compound 17, 1-Allyl-1-hydroxy-10-(4-methoxy-phenyl)-12a-methyl 2,3,3a,3b,4,5,9,10,12,12a-decahydro-1H,8H-11-oxa-naphtho[2,1-e]azulen-7-one] | 114 | > 1000 | – |
| C=C1CCOC12CC[C@H]1[C@@H]3CCC4=CC(=O)CCC4=C3[C@@H](c3ccc(N(C)C)cc3)OC[C@@]12C (stereo partly drawn) [Compound 38] | – | 1.1 | – |
| C=CC[C@]1(O)CCC2C3CCC4=CC(=O)CCC4=C3[C@H](c3ccc(OC)cc3)OC[C@@]21C (stereo partly drawn) [Compound 18, 1-Allyl-1-hydroxy-10α-(4-methoxy-phenyl)-12a-methyl 2,3,3a,3b,4,5,9,10,12,12a-decahydro-1H,8H-11-oxa-naphtho[2,1-e]azulen-7-one] | > 3000 | > 1000 | – |
| COc1ccc([C@H]2OC[C@@]3(C)C(CC[C@@]3(O)C#Cc3ccccc3)C3CCC4=CC(=O)CCC4=C32)cc1 (stereo in doubt) [Compound 23, 1-Hydroxy-10-(4-methoxy-phenyl)-12a-methyl-1-phenylethynyl-2,3,3a,3b,4,5,9,10,12,12a-decahydro-1H,8H-11-oxa-naphtho[2,1-e]azulen-7-one] | – | – | IC50 ([1]; A549 cells): 237 nM; IC50 ([2]; read-out: T47D IC50, T47D cells, 24 h with test compound, alkaline phosphatase assay (SEAP kit)): 260 nM |
| CN(C)c1ccc([C@H]2OC[C@@]3(C)C(CC[C@@]3(O)C#Cc3ccccc3F)C3CCC4=CC(=O)CCC4=C32)cc1 (stereo partly drawn) [Compound 32, 10-(4-Dimethylamino-phenyl)-1-(2-fluoro-phenylethynyl)-1-hydroxy-12a-methyl-2,3,3a,3b,4,5,9,10,12,12a-decahydro-1H,8H-11-oxa-naphtho[2,1-e]azulen-7-one] | – | 48 | – |
| COc1ccc([C@@H]2OC[C@]3(C)C(=O)CCC3C3CCC4=CC(=O)CCC4=C32)cc1 (stereo partly drawn) [Compound 29, 10-α-(4-Methoxy-phenyl)-12a-methyl-2,3,3a,3b,4,5,9,10,12,12a-decahydro-8H-11-oxa-naphtho[2,1-e]azulene-1,7-dione] | > 3000 | – | – |
| CN(C)c1ccc([C@H]2OC[C@@]3(C)C(CC[C@@]3(O)C#Cc3cc(F)cc(F)c3)C3CCC4=CC(=O)CCC4=C32)cc1 (stereo partly drawn) [Compound 36, 1-(3,5-Difluoro-phenylethynyl)-10-(4-dimethylamino-phenyl)-1-hydroxy-12a-methyl-2,3,3a,3b,4,5,9,10,12,12a-decahydro-1H,8H-11-oxa-naphtho[2,1-e]azulen-7-one] | – | 160 | – |
| COc1ccc([C@H]2OC[C@]3(C)C(=O)CCC3C3CCC4=CC(=O)CCC4=C32)cc1 (stereo partly drawn) [Compound 28, 10-(4-Methoxy-phenyl)-12a-methyl-2,3,3a,3b,4,5,9,10,12,12a-decahydro-8H-11-oxa-naphtho[2,1-e]azulene-1,7-dione] | > 3000 | – | – |
| CN(C)c1ccc(C2OCC3(C)C(CCC3(O)C(F)(F)C(F)(F)F)C3CCC4=CC(=O)CCC4=C23)cc1 (stereo not drawn) [Compound 37, 10-(4-Dimethylamino-phenyl)-1-hydroxy-12a-methyl-1-penta fluoroethyl 2,3,3a,3b4,5,9,10,12,12a-decahydro-1H,8H-11-oxa-naphtho[2,1-e]azulen-7-one] | – | – | IC50 [2, 4]: 42 nM |
| C=CC(=O)[C@]1(O)CCC2C3CCC4=CC(=O)CCC4=C3[C@@H](c3ccc(SC)cc3)OC[C@@]21C (stereo partly drawn) [Compound 26] | 2310 | – | – |
| CC#C[C@]1(O)CCC2C3CCC4=CC(=O)CCC4=C3[C@@H](c3ccc(N(C)C)cc3)OC[C@@]21C (stereo partly drawn) [Compound 7, 10-(4-Dimethylamino-phenyl)-1-hydroxy-12a-methyl-1-prop-1-ynyl-2,3,3a,3b,4,5,9,10,12,12a-decahydro-1H,8H-11-oxa-naphtho[2,1-e]azulen-7-one] | 16.2 | 116 | – |
| C#C[C@]1(O)CCC2C3CCC4=CC(=O)CCC4=C3[C@H](c3ccc(OC)cc3)OC[C@@]21C (stereo partly drawn) [Compound 13, 1-Ethynyl-1-hydroxy-10-(4-methoxy-phenyl)-12a-methyl 2,3,3a,3b,4,5,9,10,12,12a-decahydro-1H,8H-11-oxa-naphtho[2,1-e]azulen-7-one] | 367 | > 1000 | – |
| 1-Hydroxy-1-isopropenyl-10-(4-methanesulfonyl-phenyl)-12a-methyl-2,3,3a,3b,4,5,9,10,10,12,12a-decahydro-1H,8H-11-oxa-naphtho[2,1-e]azulen-7-one [Compound 30] | – | – | IC50 ([1]; A549 cells): > 1000 nM |
| CSc1ccc([C@H]2OC[C@@]3(C)C(CC[C@@]3(O)C(F)(F)C(F)(F)F)C3CCC4=CC(=O)CCC4=C32)cc1 (stereo partly drawn) [Compound 5] | 7.06 | 54 | – |
| CSc1ccc([C@H]2OC[C@]3(C)C(=O)CCC3C3CCC4=CC(=O)CCC4=C32)cc1 (stereo partly drawn) [Compound 25, 12a-Methyl-10-(4-methylsulfanyl-phenyl) 2,3,3a,3b,4,5,9,10,12,12a-decahydro-8H-11-oxa-naphtho[2,1-e]azulene-1,7-dione] | 1320 | – | – |
| 10-(4-Dimethylamino-phenyl)-1-ethynyl-1-hydroxy-12a-methyl-2,3,3a,3b,4,5,9,10,12,12a-decahydro-1H,8H-11-oxa-naphtho[2,1-e]azulen-7-one [Compound 3] | – | – | IC50 ([1]; A549 cells): 133 nM; IC50 [2, 4]: 7 nM |
| CSc1ccc(C2OCC3(C)C(CCC3(O)C(F)(F)C(F)(F)F)C3CCC4=CC(=O)CCC4=C23)cc1 (stereo not drawn) [Compound 4, 1-Hydroxy-12a-methyl-10-(4-methylsulfanyl-phenyl)-1-pentafluoroethyl-2,3,3a,3b4,5,9,10,12,12a-decahydro-1H,8H-11-oxa-naphtho[2,1-e]azulen-7-one] | – | – | IC50 ([1]; A549 cells): 68.7 nM; IC50 [2, 4]: 33.2 nM |
| COc1ccc([C@@H]2OC[C@@]3(C)C(CC[C@@]3(O)C#Cc3ccc(C(F)(F)F)cc3)C3CCC4=CC(=O)CCC4=C32)cc1 (stereo partly drawn) [Compound 22, 1-Hydroxy-10-(4-methoxy-phenyl)-12a-methyl-1-(4-trifluoromethylphenylethynyl)-2,3,3a,3b,4,5,9,10,12,12a-decahydro-1H,8H-11-oxa-naphtho[2,1-e]azulen-7-one] | > 3000 | > 1000 | – |
| CC#C[C@]1(O)CCC2C3CCC4=CC(=O)CCC4=C3[C@@H](c3ccc(OC)cc3)OC[C@@]21C (stereo partly drawn) [Compound 27] | – | – | IC50 ([1]; A549 cells): 41.5 nM |
| 10-(4-Dimethylamino-phenyl)-1-(4-fluoro-phenylethynyl)-1-hydroxy-12a-methyl-2,3,3a,3b,4,5,9,10,12,12a-decahydro-1H,8H-11-oxa-naphtho[2,1-e]azulen-7-one [Compound 35] | – | – | IC50 [2, 4]: 17 nM |
| 10-(4-Dimethylamino-phenyl)-1-(3-fluoro-phenylethynyl)-1-hydroxy-12a-methyl-2,3,3a,3b,4,5,9,10,12,12 a-decahydro-1H,8H-11-oxa-naphtho[2,1-e]azulen-7-one [Compound 34] | – | – | IC50 [2, 4]: 122 nM |
| CN(C)c1ccc([C@H]2OC[C@@]3(C)C(CC[C@@]3(O)C#Cc3ccccc3)C3CCC4=CC(=O)CCC4=C32)cc1 (stereo partly drawn) [Compound 31, 10-(4-Dimethylamino-phenyl)-1-hydroxy-12a-methyl-1-phenyl ethynyl-2,3,3a,3b,4,5,9,10,12,12a-decahydro-1H,8H-11-oxa-naphtho[2,1-e]azulen-7-one] | – | 78 | – |
